Test [1] addresses T1, KDM2B (Homo sapiens, UniProt Q8NHM5).
T1 sequence (Q8NHM5 1-1336): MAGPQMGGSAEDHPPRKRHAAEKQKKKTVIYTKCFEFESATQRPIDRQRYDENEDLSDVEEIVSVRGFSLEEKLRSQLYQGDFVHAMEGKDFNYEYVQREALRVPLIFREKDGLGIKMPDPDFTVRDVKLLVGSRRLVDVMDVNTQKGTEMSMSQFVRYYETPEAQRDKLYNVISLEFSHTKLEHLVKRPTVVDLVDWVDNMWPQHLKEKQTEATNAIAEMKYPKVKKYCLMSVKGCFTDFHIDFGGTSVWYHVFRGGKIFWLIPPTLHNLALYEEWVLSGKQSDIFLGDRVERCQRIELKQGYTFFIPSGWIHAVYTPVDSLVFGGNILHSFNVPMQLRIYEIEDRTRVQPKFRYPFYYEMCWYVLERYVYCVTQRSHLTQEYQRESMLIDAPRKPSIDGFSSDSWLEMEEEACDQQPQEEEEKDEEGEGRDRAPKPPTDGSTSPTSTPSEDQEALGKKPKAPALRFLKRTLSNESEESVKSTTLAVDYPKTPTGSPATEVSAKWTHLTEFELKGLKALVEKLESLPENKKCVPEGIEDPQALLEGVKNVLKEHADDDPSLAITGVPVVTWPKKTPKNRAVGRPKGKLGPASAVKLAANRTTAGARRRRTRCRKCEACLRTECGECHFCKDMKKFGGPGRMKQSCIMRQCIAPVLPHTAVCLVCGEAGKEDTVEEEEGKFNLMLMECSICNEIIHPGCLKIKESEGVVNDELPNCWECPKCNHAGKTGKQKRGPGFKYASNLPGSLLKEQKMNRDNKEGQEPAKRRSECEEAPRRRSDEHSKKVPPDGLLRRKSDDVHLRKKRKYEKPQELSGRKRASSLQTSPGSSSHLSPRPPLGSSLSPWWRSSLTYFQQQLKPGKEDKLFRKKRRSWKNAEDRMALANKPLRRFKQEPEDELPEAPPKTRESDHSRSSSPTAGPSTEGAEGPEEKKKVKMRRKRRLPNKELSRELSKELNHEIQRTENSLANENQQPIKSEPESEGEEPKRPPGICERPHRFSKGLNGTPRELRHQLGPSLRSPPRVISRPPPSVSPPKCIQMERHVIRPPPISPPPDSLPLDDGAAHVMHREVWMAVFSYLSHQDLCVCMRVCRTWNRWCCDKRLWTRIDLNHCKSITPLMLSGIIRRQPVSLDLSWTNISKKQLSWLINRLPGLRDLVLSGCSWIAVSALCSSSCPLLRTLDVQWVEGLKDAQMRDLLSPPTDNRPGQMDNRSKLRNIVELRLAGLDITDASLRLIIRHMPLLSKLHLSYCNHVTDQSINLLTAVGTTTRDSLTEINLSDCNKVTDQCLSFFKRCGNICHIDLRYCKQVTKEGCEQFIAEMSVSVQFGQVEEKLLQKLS
Put plainly: KDM demethylase inhibition (IC50). Type of test: biochemical.

The target in test [2] is T2, KDM4B (Homo sapiens, UniProt O94953).
T2 sequence (O94953 1-1096): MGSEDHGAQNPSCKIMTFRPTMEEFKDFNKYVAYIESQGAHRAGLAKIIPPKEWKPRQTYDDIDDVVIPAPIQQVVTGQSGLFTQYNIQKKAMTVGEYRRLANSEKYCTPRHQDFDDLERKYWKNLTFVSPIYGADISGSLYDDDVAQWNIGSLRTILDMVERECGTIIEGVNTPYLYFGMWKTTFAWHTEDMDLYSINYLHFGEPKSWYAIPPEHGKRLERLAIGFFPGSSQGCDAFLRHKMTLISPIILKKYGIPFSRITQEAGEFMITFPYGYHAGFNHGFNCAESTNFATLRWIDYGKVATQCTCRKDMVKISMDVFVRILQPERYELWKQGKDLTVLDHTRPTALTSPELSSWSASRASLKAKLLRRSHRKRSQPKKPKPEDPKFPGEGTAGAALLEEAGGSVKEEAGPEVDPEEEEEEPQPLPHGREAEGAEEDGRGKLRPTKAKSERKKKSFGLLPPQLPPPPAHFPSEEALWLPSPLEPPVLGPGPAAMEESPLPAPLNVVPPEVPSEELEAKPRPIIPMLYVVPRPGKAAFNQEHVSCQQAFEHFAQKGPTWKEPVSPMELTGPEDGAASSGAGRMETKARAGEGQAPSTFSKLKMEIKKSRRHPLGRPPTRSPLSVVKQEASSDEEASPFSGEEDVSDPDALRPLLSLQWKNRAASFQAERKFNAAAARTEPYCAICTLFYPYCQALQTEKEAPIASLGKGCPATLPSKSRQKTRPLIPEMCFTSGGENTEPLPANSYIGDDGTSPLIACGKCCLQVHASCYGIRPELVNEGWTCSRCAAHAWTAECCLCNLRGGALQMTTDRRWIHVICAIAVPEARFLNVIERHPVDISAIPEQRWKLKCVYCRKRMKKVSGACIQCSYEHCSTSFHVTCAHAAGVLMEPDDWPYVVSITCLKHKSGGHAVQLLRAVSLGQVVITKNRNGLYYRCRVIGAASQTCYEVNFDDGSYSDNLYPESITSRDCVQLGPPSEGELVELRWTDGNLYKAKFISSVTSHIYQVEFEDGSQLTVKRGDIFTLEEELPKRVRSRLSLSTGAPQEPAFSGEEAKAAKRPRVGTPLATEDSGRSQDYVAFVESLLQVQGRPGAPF
Put plainly: KDM demethylase inhibition (IC50). The class given is biochemical.

This note sets out measurements from patent US20180290977A1, “KDM4 INHIBITORS” (Albert-Ludwigs-University Freiburg, priority 2017, published 2018).

Like-named read-outs stand apart in the source and are kept apart here. A value given as a limit tells only on which side of the number the result lay.

As for `CN(c1ccccc1)c1ccc2c(c1)CCC[C@H]2CNc1cnccc1C(=O)O` [Compound I, 3-({[(1R)-6-[methyl(phenyl)amino]-1,2,3,4-tetrahydronaphthalen-1-yl]methyl}amino)pyridine-4-carboxylic Acid], the IC50 in test [1] was above 10000 nM; in test [2] (read-out: Compound I IC50) it was 56 nM; in test [2] (read-out: IC50, demethylase activity), below 105 nM.

A word on the IC50: it is the midpoint of a concentration-inhibition curve.
